Laboratory results: patent US8299209B2, “Pharmaceutical composition comprising cyclic somatostatin analogues” (Novartis AG, priority 2003, dated 2012)
Numbered stars: 1 amine (or outer) side, 2 acyl side, 3 side chain; on linkers, the order of the positions; unused ones are H or OH. Square brackets hold non-standard residues; d marks the D form. Side chains are listed from the residue outwards. Peptide text beside a SMILES is read from it. * marks the point of attachment. ξ: configuration not given here. Ethylenediamine = C(CN[*:2])N[*:1]; dPhg = N[C@@H](C(=O)O)c1ccccc1; ξHyp = O=C(O)C1CC(O)CN1; CO = O=C([*:1])[*:2]; Bn = c1ccc(C*)cc1

Legend:
hsst5 = biological target: T1, hsst5 (Homo sapiens, UniProt P35346); test: competition binding assay on membranes of cells expressing hsst5; settings: IC50 value in the nMolar range
T1 construct: expressed in transfected cells
T1 sequence (P35346 whole entry): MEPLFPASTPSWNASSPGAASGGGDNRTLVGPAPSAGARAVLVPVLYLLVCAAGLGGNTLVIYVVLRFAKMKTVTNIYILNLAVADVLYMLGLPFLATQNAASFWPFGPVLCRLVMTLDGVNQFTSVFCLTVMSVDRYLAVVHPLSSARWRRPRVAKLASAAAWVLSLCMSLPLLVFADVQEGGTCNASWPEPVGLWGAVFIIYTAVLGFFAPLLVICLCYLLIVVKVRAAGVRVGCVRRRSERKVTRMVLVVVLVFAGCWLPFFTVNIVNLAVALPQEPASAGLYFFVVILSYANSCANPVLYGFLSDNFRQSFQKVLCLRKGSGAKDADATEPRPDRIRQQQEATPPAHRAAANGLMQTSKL
Protocol: (§1) The experiments are carried out in triplicate.

hsst1 = hsst1 (Homo sapiens, UniProt P30872)
hsst1, sequence (P30872 whole entry): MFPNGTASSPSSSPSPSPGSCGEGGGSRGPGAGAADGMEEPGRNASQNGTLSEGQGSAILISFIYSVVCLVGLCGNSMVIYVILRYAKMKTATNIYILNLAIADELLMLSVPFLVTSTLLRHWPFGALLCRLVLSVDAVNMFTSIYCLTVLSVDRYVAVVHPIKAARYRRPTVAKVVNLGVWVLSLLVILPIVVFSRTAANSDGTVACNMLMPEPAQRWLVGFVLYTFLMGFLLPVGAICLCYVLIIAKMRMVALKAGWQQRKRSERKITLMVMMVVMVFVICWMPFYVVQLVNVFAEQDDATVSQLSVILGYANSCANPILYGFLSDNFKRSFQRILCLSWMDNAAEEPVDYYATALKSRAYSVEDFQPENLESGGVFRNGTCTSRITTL
Protocol: The binding assays may be carried out as disclosed hereunder using membranes from cell lines expressing selectively and stably hsst1, hsst2, hsst3, hsst4 or hsst5, e.g. CHO or COS cells.
Membranes prepared from hsst selective cell lines, e.g. CHO or COS cells stably expressing hsst1 or hsst2 or hsst3 or hsst4 or hsst5 are incubated in triplicate in a total volume of 300 μl at 22° C. for 30 min with increasing concentrations of [^125I-Tyr^11]-SRIF-14 in 10 mmol/l Hepes buffer (pH 7.6) containing 0.5% BSA. The incubation is terminated by rapid filtration and the filters are counted in a counter. Specific binding is total binding minus non-specific binding in the presence of 1 μmol/l somatostatin-14. The experiments are carried out in triplicate. The affinity constant (KD) and number of binding sites are calculated using appropriate statistics and graphical programs.

hsst3 = biological target: T2, hsst3 (Homo sapiens, UniProt P32745); test: competition binding assay on membranes of cells expressing hsst3
T2 construct: expressed in transfected cells
T2 sequence (P32745 whole entry): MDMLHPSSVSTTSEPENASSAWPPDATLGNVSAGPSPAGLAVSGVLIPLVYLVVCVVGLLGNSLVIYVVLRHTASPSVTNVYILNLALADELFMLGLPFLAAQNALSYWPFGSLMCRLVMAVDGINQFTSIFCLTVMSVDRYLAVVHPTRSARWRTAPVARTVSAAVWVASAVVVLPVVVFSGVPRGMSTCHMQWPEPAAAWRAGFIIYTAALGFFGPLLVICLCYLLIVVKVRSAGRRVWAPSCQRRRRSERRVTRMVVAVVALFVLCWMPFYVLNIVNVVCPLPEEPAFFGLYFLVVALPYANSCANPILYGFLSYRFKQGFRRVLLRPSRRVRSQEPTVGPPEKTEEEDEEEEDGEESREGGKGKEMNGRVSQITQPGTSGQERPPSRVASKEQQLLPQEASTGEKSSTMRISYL
Protocol: as §1

growth hormone release = test: inhibition of growth hormone (GH) release in rats; format: in vivo, rat; settings: s.c. to anaesthetized rats
Protocol: Compound B is administered s.c. to anaesthetized rats. Blood is collected after decapitation 1 h after administration of the compound. The duration of action is estimated on the basis of the inhibition of basal GH secretion 6 h after drug treatment. Hormone levels are measured by RIA 1 h and 6 h after treatment. The ID50-value for the inhibition of the hormone secretion is determined graphically (log-probit) for each experiment and the resulting values are averaged logarithmically.

hsst2 = biological target: T3, hsst2 (Homo sapiens, UniProt P30874); test: competition binding assay on membranes of cells expressing hsst2
T3 construct: expressed in transfected cells
T3 sequence (P30874 whole entry): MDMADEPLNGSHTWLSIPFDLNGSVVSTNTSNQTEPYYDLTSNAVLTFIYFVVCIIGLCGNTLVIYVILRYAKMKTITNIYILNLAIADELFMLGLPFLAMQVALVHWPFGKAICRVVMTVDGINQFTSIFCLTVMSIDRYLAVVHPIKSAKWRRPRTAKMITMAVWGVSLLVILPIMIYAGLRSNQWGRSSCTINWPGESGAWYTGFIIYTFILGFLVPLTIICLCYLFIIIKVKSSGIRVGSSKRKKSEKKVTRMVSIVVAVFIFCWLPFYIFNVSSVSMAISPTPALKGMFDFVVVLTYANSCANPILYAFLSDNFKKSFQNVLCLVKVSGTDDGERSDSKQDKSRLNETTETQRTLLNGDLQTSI
Protocol: as §1

cultured pituitary cells = test: inhibition of GH release in vitro from cultured pituitary cells; format: cell-based; settings: rat anterior pituitary cells, three hours, 3×10^−10 M growth hormone releasing factor
Protocol: For example, anterior pituitary glands from adult male rats are cut into small pieces and dispersed using 0.1% trypsin in 20 mM HEPES buffer. The dispersed cells are cultured for four days in MEM (Gibco) supplemented with 5% fetal calf serum, 5% horse serum, 1 mM NaHCO3, 2.5 nM dexamethasone, 2.5 mg/ml insulin and 20 U/ml Pen/Strep. On the day of the experiment the attached cells are washed two times with Krebs-Ringer medium buffered with 20 mM HEPES and supplemented with 5 mM glucose and 0.2% BSA. […] The amount of growth hormone released into the medium is measured by RIA.

[1] = storage stability of the composition; format: physicochemical; settings: in the composition of the invention
Protocol: For example, less than 2.5% of degradation products were found after 4 weeks storage at 60° C. For example, if stored with light protection at 2° C. to 8° C., the compositions of the invention are stable over 24 months.

Compound	binding affinity towards hsst5 (in words) (hsst5)	binding affinity towards hsst1 (in words) (hsst1)	binding affinity towards hsst3 (in words) (hsst3)	inhibition of growth hormone release in vivo (growth hormone release)	binding affinity towards hsst2 (in words) (hsst2)	inhibition of GH release in vitro (cultured pituitary cells)	stability (in words) [1]
NCCCC[C@@H]1NC(=O)[C@@H](Cc2c[nH]c3ccccc23)NC(=O)[C@@H](c2ccccc2)NC(=O)C2CC(OC(=O)NCCN)CN2C(=O)[C@H](Cc2ccccc2)NC(=O)[C@H](Cc2ccc(OCc3ccccc3)cc2)NC1=O (stereo partly drawn) [Compound B, cyclo[{4-(NH2—C2H4—NH—CO—O—)Pro}-DPhg-DTrp-Lys-Tyr(4-Bzl)-Phe]] (cyclo([ξHyp]([CO-Ethylenediamine])[dPhg][dW]KY(Bn)F))	good binding affinity	no significant binding affinity	low binding affinity	inhibits growth hormone release	no significant binding affinity	GH-release inhibiting activity	–
cyclo[{4-(NH2—C2H4—NH—CO—O—)Pro}-Phg-DTrp-Lys-Tyr(4-Bzl)-Phe] [diaspartate salt of Compound A]	–	–	–	–	–	–	Particularly good stability
